Reference: EP1147095B1, “2, 3, 4, 5-TETRAHYDRO-1H-[1, 4] BENZODIAZEPINE-3-HYDROXAMIC ACIDS AS MATRIX METALLOPROTEINASE INHIBITORS” (Wyeth Holdings Corporation, priority 1999, dated 2000)

Tests used:
Type in all cases: biochemical
MMP-1 = target: T1, MMP-1 (Homo sapiens, UniProt P03956); experiment: In Vitro Collagenase Assay; conditions: human recombinant fibroblast collagenase, fluorogenic peptide substrate
T1 construct: human recombinant fibroblast collagenase (truncated, mw=18,828)
T1 sequence (P03956 100-269 limits assumed): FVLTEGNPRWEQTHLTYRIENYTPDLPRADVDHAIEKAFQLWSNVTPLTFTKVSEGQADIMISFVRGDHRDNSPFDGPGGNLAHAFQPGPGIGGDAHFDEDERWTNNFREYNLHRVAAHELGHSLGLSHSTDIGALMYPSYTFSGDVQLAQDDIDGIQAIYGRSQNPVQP
Source text: In Vitro Collagenase Assay
This assay was based on the cleavage of a peptide substrate ((Dnp-Pro-Cha-Gly-Cys(Me)-His-Ala-Lys(NMa)-NH2), available from Peptide International, Inc.) by collagenase releasing the fluorescent NMa group which was quantitated on the fluorometer as disclosed in Bickett et al., "A High Throughput Fluorogenic Substrate for Interstitial Collagenase (MMP-1) and Gelatinase (MMP-9)", Anal. Biochem., 212:58-64, (1993). Dnp quenches the NMa fluorescence in the intact substrate.
The assay was run in HCBC assay buffer (50 mM HEPES, pH 7.0, 5 mM Ca^+2, 0.02% Brij, 0.5% Cysteine), with human recombinant fibroblast collagenase (truncated, mw=18,828, from Wyeth-Ayerst Research, Radnor, PA). The substrate was dissolved in methanol and stored frozen in 1 mM aliquots. Collagenase was stored frozen in buffer in 25 µM aliquots. In conducting the assay, the substrate was dissolved in HCBC buffer to a final concentration of 10 µM and collagenase to a final concentration of 5 nM. The compounds being examined were dissolved in methanol, DMSO, or HCBC. The methanol and DMSO were diluted in HCBC to < 1.0%. The compounds were added to a 96 well plate containing enzyme and the reaction was started by the addition of substrate.
The reaction was read (excitation 340 nm, emission 444 nm) for 10 min. and the increase in fluorescence over time was plotted as a linear line. The slope of the line was calculated representing the reaction rate. The linearity of the reaction rate was confirmed (r^2 >0.85). The mean (x ± sem) of the control rate was calculated and compared for statistical significance (p <0.05) with drug-treated rates using Dunnett's multiple comparison test. Dose-response relationships were generated using multiple doses of drug and IC50 values with 95% CI were estimated using linear regression.

MMP-9 = target: T2, MMP-9 (Homo sapiens, UniProt P14780); experiment: In Vitro Gelatinase Assay; conditions: human neutrophil gelatinase B, thiopeptide substrate
T2 construct: from tissue; host or cells: human neutrophils
Method: In Vitro Gelatinase Assay
The assay is based on the cleavage of the thiopeptide substrate ((Ac-Pro-Leu-Gly(2-mercapto-4-methyl-pentanoyl)-Leu-Gly-OEt), available from Bachem Bioscience) by the enzyme gelatinase, releasing the substrate product which reacts colorimetrically with DTNB ((5,5'-dithio-bis(2-nitro-benzoic acid)). This assay is disclosed in Weingarten et al., "Spectrophotometric Assay for Vertebrate Collegenase", Anal. Biochem., 147:437-440, (1985). The enzyme activity is measured by the rate of the color increase.
The thiopeptide substrate was made up fresh as a 20 mM stock in 100% DMSO and the DTNB was dissolved in 100% DMSO as a 100 mM stock and stored in the dark at room temperature. The substrate and the DTNB were diluted together to 1 mM with substrate buffer (50 mM HEPES, pH 7.5, 5 mM CaCl2) before use. The stock of human neutrophil gelatinase B was diluted with assay buffer (50 mM HEPES, pH 7.5, 5 mM CaCl2, 0.02% Brij) to a final concentration of 0.15 nM.
The assay buffer, enzyme, DTNB/substrate (500 µM final concentration) and vehicle or inhibitor were added to a 96 well plate (total reaction volume of 200µl) and the increase in color was monitored spectrophotometrically for 5 minutes at 405 nm on a plate reader.
The increase in OD405 was plotted and the slope of the line was calculated. The slope represents the reaction rate. The linearity of the reaction rate was confirmed (r^2 >0.85) and the mean (x ± sem) of the control rate was calculated and compared for statistical significance (p <0.05) with drug-treated rates using Dunnett's multiple comparison test. Dose-response relationships were generated using multiple doses of drug and IC50 values with 95% CI were estimated using linear regression (IPRED, HTB).

MMP-13 = MMP-13 (Homo sapiens, UniProt P45452); experiment: MMP-13 inhibition (Table 1, no method described)
TACE = target: T3, TACE (Homo sapiens, UniProt P78536); experiment: Procedure for Measuring TACE Inhibition; conditions: TACE (Immunex), fluorescent peptidyl substrate
T3 construct: purchased Immunex
Method: The plates were incubated for 10 minutes at room temperature. The reaction was initiated by addition of a fluorescent peptidyl substrate (final concentration 100 µM) to each well with shaking on a shaker for 5 sec. The reaction was read (excitation 340 nm, emission 420 nm) for 10 min. and the increase in fluorescence over time was plotted as a linear line. The slope of the line was calculated and this represents the reaction rate. […] The mean (x±sem) of the control rate was calculated and compared for statistical significance (p<0.05) with drug-treated rates using Dunnett's multiple comparison test.

T3 sequence (P78536 215-824): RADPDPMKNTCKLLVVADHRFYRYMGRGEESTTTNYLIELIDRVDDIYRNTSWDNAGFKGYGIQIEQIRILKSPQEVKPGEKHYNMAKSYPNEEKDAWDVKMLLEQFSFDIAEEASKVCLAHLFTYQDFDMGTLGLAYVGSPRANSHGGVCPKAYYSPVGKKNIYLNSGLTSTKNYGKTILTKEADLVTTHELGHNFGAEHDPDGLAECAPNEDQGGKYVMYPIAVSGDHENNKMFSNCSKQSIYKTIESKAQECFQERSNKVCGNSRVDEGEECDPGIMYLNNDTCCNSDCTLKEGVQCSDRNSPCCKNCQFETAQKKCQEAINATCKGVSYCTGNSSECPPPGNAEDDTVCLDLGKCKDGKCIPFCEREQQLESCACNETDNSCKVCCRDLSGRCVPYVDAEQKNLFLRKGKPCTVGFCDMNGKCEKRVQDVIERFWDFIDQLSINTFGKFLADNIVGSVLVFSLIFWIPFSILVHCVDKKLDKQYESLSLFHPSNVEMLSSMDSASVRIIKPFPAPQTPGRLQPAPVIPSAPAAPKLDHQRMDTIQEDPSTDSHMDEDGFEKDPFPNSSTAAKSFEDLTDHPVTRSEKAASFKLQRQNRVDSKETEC
T2 sequence (P14780 94-707): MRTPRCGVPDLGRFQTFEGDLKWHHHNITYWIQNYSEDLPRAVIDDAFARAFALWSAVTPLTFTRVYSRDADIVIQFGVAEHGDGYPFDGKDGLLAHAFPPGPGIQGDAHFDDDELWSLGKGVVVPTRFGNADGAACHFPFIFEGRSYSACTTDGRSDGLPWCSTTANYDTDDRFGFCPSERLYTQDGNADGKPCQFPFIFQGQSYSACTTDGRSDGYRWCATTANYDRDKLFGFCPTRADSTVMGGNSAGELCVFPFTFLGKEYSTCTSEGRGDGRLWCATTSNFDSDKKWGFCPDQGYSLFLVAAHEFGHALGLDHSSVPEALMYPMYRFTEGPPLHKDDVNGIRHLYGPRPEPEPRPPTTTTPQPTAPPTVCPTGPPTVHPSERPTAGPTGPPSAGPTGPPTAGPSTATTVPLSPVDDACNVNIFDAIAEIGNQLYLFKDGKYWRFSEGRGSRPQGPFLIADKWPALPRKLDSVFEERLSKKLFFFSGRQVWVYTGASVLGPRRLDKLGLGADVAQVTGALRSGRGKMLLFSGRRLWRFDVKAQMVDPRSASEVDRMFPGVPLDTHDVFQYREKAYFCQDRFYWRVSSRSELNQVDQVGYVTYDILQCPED

Compound | IC50 (MMP-1) | IC50 (MMP-9) | IC50 (MMP-13) | IC50 (TACE)
4-(4-But-2-ynyloxybenzene-sulfonyl)-1-methoxyacetyl-2,3,4,5-tetrahydro-1H-[1,4]benzodiazepine-3-carboxylic acid, hydroxyamide [Example 57] | 125 nM | 2 nM | 7 nM | 33 nM
4-(4-[4-Methoxybut-2-ynyloxy]benzenesulfonyl)-1-(3-pyridinylcarbonyl)-2,3,4,5-tetrahydro-1H-[1,4]benzodiazepine-3-carboxylic acid, hydroxyamide [Example 58] | 841 nM | 33 nM | 29 nM | 10 nM
CC#CCOc1ccc(S(=O)(=O)N2Cc3ccccc3N(C(C)=O)CC2C(=O)NO)cc1 (centres unmarked) [Example 1, 1-Acetyl-4-(4-but-2-ynyloxbenzenesulfonyl)-2,3,4,5-tetrahydro-1H-[1,4]benzodiazepine-3-carboxylic acid, hydroxyamide] | 835 nM | 228 nM | 77 nM | 16 nM
CC#CCOc1ccc(S(=O)(=O)N2Cc3ccccc3N(C(=O)c3ccccc3)CC2C(=O)NO)cc1 (centres unmarked) [Example 3, 1-Benzoyl-4-(4-but-2-ynyloxybenzenesulfonyl)-2,3,4,5-tetrahydro-1H-[1,4]-benzodiazepine-3-carboxylic acid, hydroxyamide] | 165 nM | 36 nM |  | 
